According to ChEMBL document CHEMBL1255438, “Comparative activities of TR-700 (torezolid) against staphylococcal blood isolates collected in Spain” (2010):
Converted amounts (≈) assume the structure as drawn.

What was measured:
Assay type in all cases: functional
[1] = tested on: Staphylococcus; test: Antimicrobial activity against linezolid-susceptible coagulase-negative Staphylococcus by CLSI method
[2] = tested on: Staphylococcus aureus; test: Antimicrobial activity against oxacillin-resistant coagulase-negative Staphylococcus aureus assessed as inhibition of microbial growth at 4 ug/ml by CLSI method
[3] = tested on: Staphylococcus; test: Antimicrobial activity against linezolid-resistant coagulase-negative Staphylococcus assessed as percent susceptible strain by CLSI method
[4] = tested on: Staphylococcus; test: Antimicrobial activity against linezolid-susceptible coagulase-negative Staphylococcus assessed as inhibition of microbial growth at 2 ug/ml by CLSI method
[5] = tested on: Staphylococcus aureus; test: Antimicrobial activity against oxacillin-susceptible coagulase-negative Staphylococcus aureus assessed as inhibition of microbial growth at 2 ug/ml by CLSI method
[6] = tested on: Staphylococcus; test: Antimicrobial activity against oxacillin-resistant coagulase-negative Staphylococcus aureus by CLSI method
[7] = tested on: Staphylococcus aureus; test: Antimicrobial activity against oxacillin-resistant Staphylococcus aureus assessed as inhibition of microbial growth at 0.5 ug/ml by CLSI method
[8] = tested on: Staphylococcus aureus; test: Antimicrobial activity against oxacillin-resistant Staphylococcus aureus assessed as inhibition of microbial growth at =< 0.25 ug/ml by CLSI method
[9] = tested on: Staphylococcus aureus; test: Antimicrobial activity against oxacillin-susceptible Staphylococcus aureus assessed as inhibition of microbial growth at 2 ug/ml by CLSI method
[10] = tested on: Staphylococcus aureus; test: Antimicrobial activity against methicillin-resistant Staphylococcus aureus by CLSI method
[11] = tested on: Staphylococcus aureus; test: Antimicrobial activity against oxacillin-resistant Staphylococcus aureus by CLSI method
[12] = tested on: Staphylococcus; test: Antimicrobial activity against linezolid-resistant coagulase-negative Staphylococcus by CLSI method
[13] = tested on: Staphylococcus aureus; test: Antimicrobial activity against oxacillin-resistant coagulase-negative Staphylococcus aureus assessed as inhibition of microbial growth at 2 ug/ml by CLSI method
[14] = tested on: Staphylococcus aureus; test: Antimicrobial activity against linezolid-susceptible Staphylococcus aureus assessed as inhibition of microbial growth at 0.5 ug/ml by CLSI method
[15] = tested on: Staphylococcus aureus; test: Antimicrobial activity against linezolid-susceptible Staphylococcus aureus assessed as inhibition of microbial growth at 2 ug/ml by CLSI method
[16] = tested on: Staphylococcus; test: Antimicrobial activity against linezolid-resistant coagulase-negative Staphylococcus assessed as inhibition of microbial growth at 256 ug/ml by CLSI method
[17] = tested on: Staphylococcus aureus; test: Antimicrobial activity against linezolid-susceptible Staphylococcus aureus assessed as inhibition of microbial growth at 4 ug/ml by CLSI method
[18] = tested on: Staphylococcus; test: Antimicrobial activity against oxacillin-susceptible coagulase-negative Staphylococcus aureus by CLSI method
[19] = tested on: Staphylococcus aureus; test: Antimicrobial activity against oxacillin-resistant coagulase-negative Staphylococcus aureus assessed as inhibition of microbial growth at 1 ug/ml by CLSI method
[20] = tested on: Staphylococcus; test: Antimicrobial activity against linezolid-resistant coagulase-negative Staphylococcus assessed as inhibition of microbial growth at 128 ug/ml by CLSI method
[21] = tested on: Staphylococcus aureus; test: Antimicrobial activity against oxacillin-susceptible coagulase-negative Staphylococcus aureus assessed as inhibition of microbial growth at 0.5 ug/ml by CLSI method
[22] = tested on: Staphylococcus aureus; test: Antimicrobial activity against oxacillin-resistant Staphylococcus aureus assessed as inhibition of microbial growth at 4 ug/ml by CLSI method
[23] = tested on: Staphylococcus; test: Antimicrobial activity against linezolid-resistant coagulase-negative Staphylococcus assessed as inhibition of microbial growth at 32 ug/ml by CLSI method
[24] = tested on: Staphylococcus; test: Antimicrobial activity against linezolid-susceptible coagulase-negative Staphylococcus assessed as percent susceptible strain by CLSI method
[25] = tested on: Staphylococcus; test: Antimicrobial activity against linezolid-susceptible coagulase-negative Staphylococcus assessed as inhibition of microbial growth at =< 0.25 ug/ml by CLSI method
[26] = tested on: Staphylococcus aureus; test: Antimicrobial activity against oxacillin-susceptible Staphylococcus aureus assessed as inhibition of microbial growth at 1 ug/ml by CLSI method
[27] = Antimicrobial activity against oxacillin-susceptible coagulase-negative Staphylococcus aureus assessed as percent susceptible strain by CLSI method
[28] = tested on: Staphylococcus aureus; test: Antimicrobial activity against oxacillin-susceptible coagulase-negative Staphylococcus aureus assessed as inhibition of microbial growth at =< 0.25 ug/ml by CLSI method
[29] = tested on: Staphylococcus; test: Antimicrobial activity against linezolid-susceptible coagulase-negative Staphylococcus assessed as inhibition of microbial growth at 4 ug/ml by CLSI method
[30] = tested on: Staphylococcus aureus; test: Antimicrobial activity against oxacillin-susceptible Staphylococcus aureus by CLSI method
[31] = tested on: Staphylococcus aureus; test: Antimicrobial activity against oxacillin-susceptible Staphylococcus aureus assessed as inhibition of microbial growth at =< 0.25 ug/ml by CLSI method
[32] = tested on: Staphylococcus; test: Antimicrobial activity against linezolid-resistant coagulase-negative Staphylococcus assessed as inhibition of microbial growth at 64 ug/ml by CLSI method
[33] = tested on: Staphylococcus aureus; test: Antimicrobial activity against oxacillin-susceptible Staphylococcus aureus assessed as inhibition of microbial growth at 0.5 ug/ml by CLSI method
[34] = tested on: Staphylococcus aureus; test: Antimicrobial activity against linezolid-susceptible Staphylococcus aureus by CLSI method
[35] = tested on: Staphylococcus; test: Antimicrobial activity against linezolid-susceptible coagulase-negative Staphylococcus assessed as inhibition of microbial growth at 1 ug/ml by CLSI method
[36] = tested on: Staphylococcus aureus; test: Antimicrobial activity against oxacillin-susceptible coagulase-negative Staphylococcus aureus assessed as inhibition of microbial growth at 1 ug/ml by CLSI method
[37] = tested on: Staphylococcus; test: Antimicrobial activity against linezolid-susceptible coagulase-negative Staphylococcus assessed as inhibition of microbial growth at 0.5 ug/ml by CLSI method
[38] = tested on: Staphylococcus aureus; test: Antimicrobial activity against oxacillin-resistant Staphylococcus aureus assessed as inhibition of microbial growth at 2 ug/ml by CLSI method
[39] = tested on: Staphylococcus aureus; test: Antimicrobial activity against linezolid-susceptible Staphylococcus aureus assessed as percent susceptible strain by CLSI method
[40] = tested on: Staphylococcus aureus; test: Antimicrobial activity against oxacillin-resistant Staphylococcus aureus assessed as inhibition of microbial growth at 1 ug/ml by CLSI method
[41] = tested on: Staphylococcus; test: Antimicrobial activity against linezolid-resistant coagulase-negative Staphylococcus assessed as inhibition of microbial growth at 16 ug/ml by CLSI method
[42] = tested on: Staphylococcus aureus; test: Antimicrobial activity against linezolid-resistant Staphylococcus aureus by CLSI method
[43] = tested on: Staphylococcus aureus; test: Antimicrobial activity against linezolid-susceptible Staphylococcus aureus assessed as inhibition of microbial growth at =< 0.25 ug/ml by CLSI method
[44] = tested on: Staphylococcus aureus; test: Antimicrobial activity against linezolid-resistant Staphylococcus aureus assessed as percent susceptible strain by CLSI method
[45] = tested on: Staphylococcus aureus; test: Antimicrobial activity against oxacillin-susceptible Staphylococcus aureus assessed as inhibition of microbial growth at 4 ug/ml by CLSI method
[46] = tested on: Staphylococcus aureus; test: Antimicrobial activity against oxacillin-susceptible Staphylococcus aureus assessed as percent susceptible strain by CLSI method
[47] = tested on: Staphylococcus aureus; test: Antimicrobial activity against linezolid-resistant Staphylococcus aureus assessed as inhibition of microbial growth at 16 ug/ml by CLSI method
[48] = tested on: Staphylococcus aureus; test: Antimicrobial activity against linezolid-susceptible Staphylococcus aureus assessed as inhibition of microbial growth at 1 ug/ml by CLSI method

CC(=O)NC[C@H]1CN(c2ccc(N3CCOCC3)c(F)c2)C(=O)O1 [LINEZOLID]
MIC50 [1]: 1 µg/mL (≈ 2.96 µM) | MIC90 [1]: 2 µg/mL (≈ 5.93 µM) | inhibition at 4 µg/mL [2]: 100% | Activity [3]: 0% | inhibition at 2 µg/mL [4]: 99% | inhibition at 2 µg/mL [5]: 100% | MIC50 [6]: 1 µg/mL (≈ 2.96 µM) | MIC90 [6]: 2 µg/mL (≈ 5.93 µM) | inhibition at 0.5 µg/mL [7]: 4% | inhibition (INH) [8]: 2% | inhibition at 2 µg/mL [9]: 99% | MIC [10]: 16 µg/mL (≈ 47.4 µM) | MIC50 [11]: 2 µg/mL (≈ 5.93 µM) | MIC90 [11]: 4 µg/mL (≈ 11.9 µM) | MIC50 [12]: 16 µg/mL (≈ 47.4 µM) | inhibition at 2 µg/mL [13]: 98.7% | inhibition at 0.5 µg/mL [14]: 2.4% | inhibition at 2 µg/mL [15]: 91.1% | inhibition at 256 µg/mL [16]: 100% | inhibition at 4 µg/mL [17]: 100% | MIC50 [18]: 1 µg/mL (≈ 2.96 µM) | MIC90 [18]: 2 µg/mL (≈ 5.93 µM) | inhibition at 1 µg/mL [19]: 81.6% | inhibition at 128 µg/mL [20]: 80% | inhibition at 0.5 µg/mL [21]: 9.8% | inhibition at 4 µg/mL [22]: 100% | inhibition at 32 µg/mL [23]: 60% | Activity [24]: 100% | inhibition (INH) [25]: 3% | inhibition at 1 µg/mL [26]: 51% | Activity [27]: 100% | inhibition (INH) [28]: 4.9% | inhibition at 4 µg/mL [29]: 100% | MIC50 [30]: 1 µg/mL (≈ 2.96 µM) | MIC90 [30]: 2 µg/mL (≈ 5.93 µM) | inhibition (INH) [31]: 0.5% | inhibition at 64 µg/mL [32]: 80% | inhibition at 0.5 µg/mL [33]: 0.5% | MIC50 [34]: 2 µg/mL (≈ 5.93 µM) | MIC90 [34]: 2 µg/mL (≈ 5.93 µM) | inhibition at 1 µg/mL [35]: 80.4% | inhibition at 1 µg/mL [36]: 75.6% | inhibition at 0.5 µg/mL [37]: 8% | inhibition at 2 µg/mL [38]: 84.6% | Activity [39]: 100% | inhibition at 1 µg/mL [40]: 40.5% | inhibition at 16 µg/mL [41]: 60% | MIC50 [42]: 16 µg/mL (≈ 47.4 µM) | inhibition (INH) [43]: 1.3% | Activity [44]: 0% | inhibition at 4 µg/mL [45]: 100% | Activity [46]: 100% | inhibition at 16 µg/mL [47]: 100% | inhibition at 1 µg/mL [48]: 45.2%
